From the supplement of paper PMC10307832

Compound: CC1=CN=C(N=C1C2=CNC(=C2)C(=O)N[C@H](CO)C3=CC(=CC=C3)Cl)NC4=C(C=C(C=C4)F)Cl [VX-11e] + CS(=O)(=O)N1CCN(Cc2cc3nc(-c4cccc5[nH]ncc45)nc(N4CCOCC4)c3s2)CC1 [Pictilisib] (partner 1 µM)
Experiment: relative viability (nuclei count vs DMSO), 5 days (fraction); higher = more cells survive
Outline: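 Lung cancer cell lines in 1536-well plates were dosed by pin tool the day after seeding, either with one drug alone or with a fixed anchor-drug dose plus five library-drug doses (not always all listed) in √10 steps. After 5 days, cells were fixed and their nuclei stained in one step (final 0.05% Triton X-100, 1% formaldehyde, 1 ug/ml Hoechst), then counted on 4× images. Relative viability is the nuclei count in treated wells divided by that in vehicle wells. Values are medians of duplicate plates.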

Cell Line | relative viability (first compound 0.04 µM) | relative viability (first compound 0.1265 µM) | relative viability (first compound 0.4 µM) | relative viability (first compound 1.265 µM) | relative viability (first compound 4 µM)
201T | 0.599 | 0.658 | 0.608 | 0.542 | 0.647
A549 | 0.481 | 0.475 | 0.316 | 0.0889 | 0.0408
A-427 | 0.454 | 0.468 | 0.535 | 0.422 | 0.154
ABC-1 | 0.615 | 0.539 | 0.809 | 0.518 | 0.466
BEN | 0.465 | 0.533 | 0.628 | 0.392 | 0.468
CAL-12T |  |  | 0.393 | 0.524 | 0.295
COR-L23 | 0.83 | 0.72 | 0.52 | 0.382 | 0.184
COR-L 105 | 0.341 | 0.41 | 0.362 | 0.29 | 0.322
Calu-6 | 1.03 | 0.874 | 0.907 | 0.261 | 0.0991
ChaGo-K-1 | 0.351 |  | 0.587 | 0.567 | 0.569
EBC-1 | 0.494 | 0.436 | 0.378 | 0.201 | 0.162
EKVX | 0.447 | 0.545 | 0.461 | 0.404 | 0.19
EMC-BAC-2 | 0.468 | 0.488 | 0.516 | 0.432 | 0.337
EPLC-272H | 0.301 | 0.299 | 0.266 | 0.213 | 0.233
H3255 | 0.476 | 0.428 | 0.482 | 0.596 | 0.316
HARA | 0.0961 | 0.425 | 0.322 | 0.341 | 0.188
HCC-15 | 0.619 | 0.682 | 0.32 | 0.334 | 0.168
HCC-44 | 0.539 | 0.552 | 0.628 | 0.359 | 0.163
HCC-78 | 0.23 | 0.185 | 0.31 | 0.189 | 0.224
HCC-366 | 0.159 | 0.101 | 0.15 | 0.12 | 0.081
HCC-827 | 1.03 | 0.883 | 1.06 | 1.19 | 0.813
HOP-62 | 0.42 | 0.51 | 0.152 | 0.125 | 0.116
IA-LM | 0.327 | 0.263 | 0.199 | 0.0879 | 0.0695
LC-2-ad | 0.398 | 0.432 | 0.349 | 0.247 | 0.163
LCLC-97TM1 | 0.137 | 0.138 |  | 0.143 | 0.0889
LCLC-103H | 0.516 | 0.509 | 0.582 | 0.442 | 0.439

Cell Line | relative viability (first compound 0.04 µM) | relative viability (first compound 0.1265 µM) | relative viability (first compound 0.4 µM) | relative viability (first compound 1.265 µM) | relative viability (first compound 4 µM)
LK-2 |  | 0.45 | 0.562 |  | 0.337
LOU-NH91 | 0.474 | 0.54 |  | 0.501 | 0.504
LU99A | 0.285 | 0.283 | 0.385 | 0.278 | 0.155
LXF-289 | 0.785 | 0.754 | 0.66 | 0.686 | 0.333
NCI-H23 | 0.35 | 0.437 | 0.176 | 0.31 | 0.19
NCI-H322M | 0.496 |  | 0.453 | 0.439 | 0.389
NCI-H358 | 0.3 | 0.313 |  | 0.372 | 0.254
NCI-H441 | 0.349 | 0.518 |  | 0.371 | 0.24
NCI-H460 | 0.306 | 0.27 | 0.141 | 0.173 | 0.1
NCI-H520 | 0.267 | 0.276 | 0.34 | 0.274 | 0.336
NCI-H596 | 0.377 | 0.429 | 0.378 | 0.431 | 0.319
NCI-H647 | 0.32 | 0.26 | 0.122 | 0.381 | 0.132
NCI-H650 |  | 0.927 | 1.23 |  | 0.819
NCI-H661 | 0.324 | 0.462 | 0.4 | 0.403 | 0.363
NCI-H727 | 0.243 | 0.451 | 0.314 | 0.238 | 0.173
NCI-H838 | 0.333 | 0.435 | 0.266 | 0.424 | 0.292
NCI-H1299 | 0.851 | 0.821 | 0.681 | 0.262 | 0.119
NCI-H1355 | 0.263 | 0.194 | 0.166 | 0.3 | 0.232
NCI-H1395 | 0.682 | 0.551 | 0.501 | 0.59 | 0.435
NCI-H1437 | 0.36 | 0.281 | 0.356 | 0.163 | 0.124
NCI-H1563 | 0.662 | 0.538 | 0.559 | 0.656 | 0.625
NCI-H1650 | 0.531 | 0.451 | 0.171 | 0.276 | 0.303
NCI-H1651 | 0.494 | 0.519 | 0.504 | 0.548 | 0.536
NCI-H1666 | 0.511 | 0.406 | 0.367 | 0.336 | 0.294
NCI-H1703 |  | 0.257 | 0.234 | 0.268 | 0.258
NCI-H1734 | 0.358 | 0.39 | 0.376 | 0.31 | 0.245

Cell Line | relative viability (first compound 0.04 µM) | relative viability (first compound 0.1265 µM) | relative viability (first compound 0.4 µM) | relative viability (first compound 1.265 µM) | relative viability (first compound 4 µM)
NCI-H1755 | 0.397 | 0.337 | 0.152 | 0.357 | 0.16
NCI-H1792 | 0.299 | 0.2 | 0.319 | 0.27 | 0.0521
NCI-H1793 |  | 0.329 |  | 0.273 | 0.232
NCI-H1915 | 0.556 | 0.757 | 0.636 | 0.627 | 0.282
NCI-H1944 | 0.301 | 0.308 | 0.306 | 0.309 | 0.281
NCI-H1975 | 0.237 | 0.278 | 0.2 | 0.222 | 0.202
NCI-H1993 |  | 0.805 |  | 0.814 | 0.865
NCI-H2009 | 0.712 | 0.671 | 0.478 | 0.23 | 0.186
NCI-H2023 | 0.2 | 0.215 | 0.0991 | 0.151 | 0.119
NCI-H2085 | 0.361 | 0.51 | 0.441 | 0.452 | 0.357
NCI-H2087 | 0.778 | 0.734 | 0.271 | 0.445 | 0.273
NCI-H2126 |  | 0.518 | 0.393 | 0.384 | 0.392
NCI-H2170 | 0.244 | 0.265 | 0.19 | 0.217 | 0.237
NCI-H2228 | 0.355 | 0.464 | 0.0994 | 0.854 | 0.188
NCI-H2347 | 0.813 | 0.662 | 0.491 | 0.36 | 0.298
NCI-H2405 | 0.3 | 0.388 |  | 0.412 | 0.125
NCI-H3122 | 0.633 | 0.57 | 0.255 | 0.406 | 0.212
PC-3 [JPC-3] | 0.608 | 0.684 | 0.703 | 0.644 | 0.635
PC-14 | 0.661 | 0.619 | 0.583 | 0.494 | 0.207
RERF-LC-KJ | 0.63 | 0.521 | 0.614 | 0.641 | 0.484
SK-LU-1 | 0.442 | 0.551 | 0.249 | 0.37 | 0.195
SK-MES-1 | 0.337 | 0.31 | 0.316 | 0.249 | 0.168
SW 1573 | 0.509 | 0.522 | 0.404 | 0.307 | 0.298
UMC-11 | 0.355 | 0.943 | 0.755 | 0.401 | 0.609
